Usually MIC stands for the lowest concentration that inhibits growth of the organism.

Values after ≈ are worked out from the molar mass of the structure shown.

For 2 molecules, MIC results are on record in ChEMBL document CHEMBL5120774, “Genome-Mining-Guided Discovery and Characterization of the PKS-NRPS-Hybrid Polyoxyperuin Produced by a Marine-Derived Streptomycete” (2022).

Common to all, as to format: functional
In test [1] the test system is Escherichia coli. The test can be described thus: Antibacterial activity against Escherichia coli ATCC 35218 assessed as inhibition of bacterial growth incubated for 18 hrs by broth microdilution method.
Test [2] has as its system Staphylococcus aureus. The test can be described thus: Antibacterial activity against Staphylococcus aureus ATCC 25923 assessed as inhibition of bacterial growth incubated for 18 hrs by broth microdilution method. In general terms: In broth dilution the organism is exposed to a series of concentrations in liquid medium.
Test [3] has as its system Bacillus subtilis. The test can be described thus: Antibacterial activity against Bacillus subtilis DSM10 assessed as inhibition of bacterial growth incubated for 18 hrs by broth microdilution method.
The subject of test [4] is Micrococcus luteus. As to the kind of experiment: Antibacterial activity against Micrococcus luteus DSM20030 assessed as inhibition of bacterial growth incubated for 18 hrs by broth microdilution method.
Test [5] has as its system Listeria monocytogenes. The test can be described thus: Antibacterial activity against Listeria monocytogenes DSM20600 assessed as inhibition of bacterial growth incubated for 48 hrs by BacTiter-Glo assay.
Test [6] has as its system Mycolicibacterium smegmatis. As to the kind of experiment: Antibacterial activity against Mycobacterium smegmatis ATCC 607 assessed as inhibition of bacterial growth incubated for 48 hrs by BacTiter-Glo assay.

As for `CC[C@H]1OC(O)(C(C)(O)C(=O)N[C@H](C(=O)N2NCCC[C@@H]2C(=O)N(O)[C@@H](C)C(=O)N(C)[C@@H](CC(C)C)C(=O)N2NCCC[C@@H]2C(=O)N(O)CC(=O)O)C(O)C(C)C)CC[C@@H]1C` (some centres not stated), the minimum inhibitory concentration (MIC) is above 64 µg/mL in test [1]; above 64 µg/mL in test [2]; above 64 µg/mL in test [3]; 32 µg/mL (≈ 36.7 µM) in test [4]; above 64 µg/mL in test [5]; above 64 µg/mL in test [6].

For `CC[C@H]1OC(O)(C(C)(O)C(=O)N[C@@H]2C(=O)N3NCCC[C@@H]3C(=O)N(O)[C@@H](C)C(=O)N(C)[C@@H](CC(C)C)C(=O)N3NCCC[C@@H]3C(=O)N(O)CC(=O)OC2C(C)C)CC[C@@H]1C` (some centres not stated), the MIC was above 64 µg/mL in test [1]; 0.125 µg/mL (≈ 0.146 µM) in test [2]; 0.125 µg/mL (≈ 0.146 µM) in test [3]; below 0.031 µg/mL in test [4]; below 0.031 µg/mL in test [5]; above 64 µg/mL in test [6].
